Test results: US9206167B2, “Piperazine-substituted benzothiophenes for treatment of mental disorders” (Otsuka Pharmaceutical Co., Ltd., priority 2005, dated 2015)
pKi: −log10 of the molar value.

What was measured:
[1] = molecular target: Serotonin (5-HT) uptake (Rattus norvegicus (Rat), UniProt P31652); assay: Serotonin (5-HT) uptake inhibitory activity by rat brain synaptosome; format: biochemical; details: test compound 300 nM, rat frontal cortex synaptosome; read-out: Serotonin uptake inhibitory ratio (%) (300 nM)
Serotonin (5-HT) uptake, sequence (P31652 whole entry): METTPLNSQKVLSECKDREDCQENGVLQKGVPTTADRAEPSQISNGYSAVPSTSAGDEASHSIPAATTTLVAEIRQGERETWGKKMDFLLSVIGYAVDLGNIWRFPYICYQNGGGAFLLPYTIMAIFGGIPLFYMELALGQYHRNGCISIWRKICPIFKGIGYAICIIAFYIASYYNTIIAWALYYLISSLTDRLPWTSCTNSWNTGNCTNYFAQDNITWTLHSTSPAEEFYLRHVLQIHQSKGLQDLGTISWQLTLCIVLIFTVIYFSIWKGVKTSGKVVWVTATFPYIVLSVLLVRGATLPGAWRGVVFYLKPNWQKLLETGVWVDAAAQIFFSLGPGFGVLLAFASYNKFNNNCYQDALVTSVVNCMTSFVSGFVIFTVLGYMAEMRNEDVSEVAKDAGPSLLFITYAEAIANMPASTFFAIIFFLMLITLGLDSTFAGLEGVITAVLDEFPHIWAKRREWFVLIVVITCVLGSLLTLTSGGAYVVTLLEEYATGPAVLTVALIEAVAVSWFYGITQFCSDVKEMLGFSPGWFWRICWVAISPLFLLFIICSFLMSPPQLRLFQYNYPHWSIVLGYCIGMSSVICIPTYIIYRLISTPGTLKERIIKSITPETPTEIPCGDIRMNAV
Procedure: Measurement of Serotonin (5-HT) Uptake Inhibitory Activity of a Test Compound by Rat Brain Synaptosome
Wistar male rats were decapitated, the brain was retrieved and frontal cortex was dissected out, and it was homogenized in 0.32 M sucrose solution of a weight 20 times of the weight of the tissue using a Potter type homogenizer. The homogenate was centrifuged at 4° C., 1,000×g for 10 minutes, the obtained supernatant was further centrifuged at 4° C., 20,000×g for 20 minutes, and the pellet was suspended in an incubation buffer (20 mM Hepes buffer (pH 7.4) containing 10 mM glucose, 145 mM sodium chloride, 4.5 mM potassium Chloride, 1.2 mM magnesium chloride, 1.5 mM calcium chloride), which was used as crude synaptosome fraction.
5-HT uptake reaction was performed in a volume of 200 μl using a 96-well round bottom plate and pargyline (final concentration 10 μM) and sodium ascorbate (final concentration 0.2 mg/ml) were contained in the incubation buffer upon reaction and used.
Incubation buffer (total counting), non-labeled 5-HT (final concentration 10 μM, non-specific counting) and the diluted test compound (final concentration 300 nM) were added to each well. One-tenth quantity of the final volume of the synaptosome fraction was added and after preincubated at 37° C. for 10 minutes, tritium labeled 5-HT solution (final concentration 8 nM) was added and uptake reaction was started at 37° C. The uptake time was 10 minutes and the reaction was terminated by vacuum filtration through a 96-well fiber glass filter paper plate, and after the filter paper was washed with cold normal saline, it was dried enough and Microscint0 (Perkin-Elmer) was added to the filter and remaining radioactivity on the filter was measured.

[2] = molecular target: Dopamine D2 receptor (Rattus norvegicus (Rat), UniProt P61169); assay: Dopamine D2 receptor binding assay ([3H]-raclopride, rat corpus striatum membrane); details: Ki from IC50 by Cheng-Prussoff formula
Dopamine D2 receptor, sequence (P61169 whole entry): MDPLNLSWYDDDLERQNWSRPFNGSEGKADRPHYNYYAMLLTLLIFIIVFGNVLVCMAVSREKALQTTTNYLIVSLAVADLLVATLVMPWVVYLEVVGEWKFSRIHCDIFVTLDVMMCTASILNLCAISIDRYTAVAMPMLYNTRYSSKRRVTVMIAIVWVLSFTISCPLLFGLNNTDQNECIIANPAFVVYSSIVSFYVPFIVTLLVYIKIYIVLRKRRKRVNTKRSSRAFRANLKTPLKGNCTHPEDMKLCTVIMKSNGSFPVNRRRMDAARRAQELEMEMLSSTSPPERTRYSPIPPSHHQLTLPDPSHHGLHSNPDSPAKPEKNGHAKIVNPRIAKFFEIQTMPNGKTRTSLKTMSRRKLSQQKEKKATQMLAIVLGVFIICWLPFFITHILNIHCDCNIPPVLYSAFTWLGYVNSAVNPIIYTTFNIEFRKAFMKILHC
Procedure: Pharmacological Test 1 1) Dopamine D2 Receptor Binding Assay
Wistar male rats were decapitated, the brain was retrieved immediately and corpus striatum was taken out. It was homogenized in 50 mM tris(hydroxymethyl)aminomethane (Tris)-hydrochloric acid buffer (pH 7.4) of a volume 50 times of the weight of the tissue using a homogenizer with a high-speed rotating blade, and centrifuged at 4° C., 48,000×g for 10 minutes. The obtained precipitate was suspended again in the above-described buffer of a volume 50 times of the weight of the tissue and after incubated at 37° C. for 10 minutes, centrifuged in the above-described condition. The obtained precipitate was suspended in 50 mM (Tris)-hydrochloric acid buffer (containing 120 mM NaCl, 5 mM KCl, 2 mM CaCl2, 1 mM MgCl2, pH 7.4) of a volume 25 times of the weight of the tissue and preserved by freezing at −85° C. till it was used for binding assay as a membrane specimen.
The binding assay was performed using 40 μl of the membrane specimen, 20 μl of [^3H]-raclopride (final concentration 1 to 2 nM), 20 μl of a test drug and 50 mM Tris-hydrochloric acid buffer (containing 120 mM NaCl, 5 mM KCl, 2 mM CaCl2, 1 mM MgCl2, pH 7.4) so that the total amount was 200 μl (final dimethylsulfoxide concentration 1%). The reaction was performed at room temperature for 1 hour and terminated by conducting suction filtration with a cell harvester on a glass fiber filter plate. The filter plate made of glass fiber was washed with 50 mM Tris-hydrochloric acid buffer (pH 7.4), and after dried, a microplate liquid scintillation cocktail was added and the radioactivity was measured with a microplate scintillation counter. Radioactivity in the presence of 10 μM (+)-butaclamol hydrochloride was assumed as nonspecific binding.
(§1) IC50 value was calculated from concentration-dependent reaction using a non-linear analysis program. Ki value was calculated from IC50 value using Cheng-Prussoff formula.

[3] = molecular target: Serotonin 5-HT2A receptor (Rattus norvegicus (Rat), UniProt P14842); assay: Serotonin 5-HT2A receptor binding assay ([3H]-Ketanserin, rat frontal cortex membrane); details: Ki from IC50 by Cheng-Prussoff formula
Serotonin 5-HT2A receptor, sequence (P14842 whole entry): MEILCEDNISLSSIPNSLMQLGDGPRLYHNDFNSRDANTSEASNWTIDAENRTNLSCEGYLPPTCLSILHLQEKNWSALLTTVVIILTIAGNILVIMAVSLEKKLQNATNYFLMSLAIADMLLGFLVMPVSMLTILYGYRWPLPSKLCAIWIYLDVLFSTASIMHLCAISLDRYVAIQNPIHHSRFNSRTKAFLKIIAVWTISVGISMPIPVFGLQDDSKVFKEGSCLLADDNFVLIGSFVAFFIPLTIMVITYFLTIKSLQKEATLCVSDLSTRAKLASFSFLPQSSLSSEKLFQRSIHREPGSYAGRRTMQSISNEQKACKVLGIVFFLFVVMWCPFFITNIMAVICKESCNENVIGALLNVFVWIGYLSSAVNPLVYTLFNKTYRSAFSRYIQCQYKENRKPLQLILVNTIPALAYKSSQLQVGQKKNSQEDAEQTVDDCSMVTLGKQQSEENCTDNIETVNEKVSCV
Procedure: 2) Serotonin 5-HT2A Receptor Binding Assay
The assay was performed according to the method by Leysen J E et al. (Leysen J E, Niemegeers C J E, Van Nueten J M and Laduron P M. [3H] Ketanserin (R 41 468), a selective 3H-ligand for serotonin 2 receptor binding sites. Mol. Pharmacol., 1982, 21: 301-314).
Wistar male rats were decapitated, the brain was retrieved immediately and frontal cortex was taken out. It was homogenized in 0.25 M sucrose of a volume 10 times of the weight of the tissue using a Teflon glass homogenizer, and centrifuged at 4° C., 1,000×g for 10 minutes. The obtained supernatant was transferred to another centrifuge tube and suspended in 0.25 M sucrose of a volume 5 times of the weight of the tissue and the precipitate was centrifuged in the above-described condition. The obtained supernatant was combined with the supernatant obtained above and adjusted to a volume 40 times of the weight of the tissue with 50 mM Tris-hydrochloric acid buffer (pH 7.4), and centrifuged at 4° C., 35,000×g for 10 minutes. The obtained precipitate was suspended again in the above-described buffer of a volume 40 times of the weight of the tissue and centrifuged in the above-described condition. The obtained precipitate was suspended in the above-described buffer of a volume 20 times of the weight of the tissue and preserved by freezing at −85° C. till it was used for binding assay as a membrane specimen.
The binding assay was performed using 40 μl of the membrane specimen, 20 μl of [^3H]-Ketanserin (final concentration 1 to 3 nM), 20 μl of a test drug and 50 mM Tris-hydrochloric acid buffer (pH 7.4) so that the total amount was 200 μl (final dimethylsulfoxide concentration 1%). The reaction was performed at 37° C. for 20 minutes and terminated by conducting suction filtration with a cell harvester on a glass fiber filter plate.
The filter plate made of glass fiber was washed with 50 mM Tris-hydrochloric acid buffer (pH 7.4), and after dried, a microplate liquid scintillation cocktail was added and the radioactivity was measured with a microplate scintillation counter. Radioactivity in the presence of 10 μM spiperone was assumed as nonspecific binding.
as §1

[4] = molecular target: Human recombinant dopamine D2 receptor (Homo sapiens (Human), UniProt P14416); details: forskolin-stimulated D2 expressing CHO/DHFR(-) cells, control drug
Human recombinant dopamine D2 receptor, sequence (P14416 whole entry): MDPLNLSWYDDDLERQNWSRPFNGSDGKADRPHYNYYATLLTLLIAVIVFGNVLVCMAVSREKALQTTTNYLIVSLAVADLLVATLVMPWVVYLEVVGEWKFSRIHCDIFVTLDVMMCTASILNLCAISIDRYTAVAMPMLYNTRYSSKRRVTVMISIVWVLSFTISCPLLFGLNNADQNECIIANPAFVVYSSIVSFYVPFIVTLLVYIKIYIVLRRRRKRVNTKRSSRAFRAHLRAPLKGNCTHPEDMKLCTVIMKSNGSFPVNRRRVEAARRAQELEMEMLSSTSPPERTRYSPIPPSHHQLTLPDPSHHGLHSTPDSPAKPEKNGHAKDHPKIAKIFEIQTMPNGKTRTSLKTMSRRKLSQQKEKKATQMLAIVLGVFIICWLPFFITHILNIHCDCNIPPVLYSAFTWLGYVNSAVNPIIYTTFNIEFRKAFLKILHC
Procedure: Partial agonistic activity on dopamine D2 receptor was evaluated by quantitatively determining cyclic AMP production inhibitory effect of a test compound in dopamine D2 receptor expression cells in which adenosine 3′,5′-cyclic monophosphate (cyclic AMP) production was induced by forskolin stimulation.
Human recombinant dopamine D2 receptor expressing Chinese hamster ovary/DHFR(−) cells were cultured in a culture medium (Iscove's Modified Dulbecco's Medium (IMDM culture medium), 10% fetal bovine serum, 50 I.U./ml penicillin, 50 μg/ml streptomycin, 200 μg/ml geneticin, 0.1 mM sodium hypoxanthine, 16 μM thymidine) at 37° C. and 5% carbon dioxide condition. Cells were seeded at 10^4 cells/well on a 96-well microtiter plate coated with poly-L-lysine and grown under the same condition for 2 days. Each well was washed with 100 μl of a culture medium (IMDM culture medium, 0.1 mM sodium hypoxanthine, 16 μM thymidine).

Row | SMILES | inhibition at 0.3 µM [1] | pKi [2] | pKi [3] | quantity of cyclic AMP as the maximum activity (well without test compound = 100%) [4]
1 | Cc1cc2ccc(OCCCN3CCN(c4cccc5sccc45)CC3)cc2[nH]c1=O [Example 5, 7-[3-(4-benzo[b]thiophen-4-yl-piperazin-1-yl)propoxy]-3-methyl-1H-quinolin-2-one] | 89.1% | 9.22 | 8.19 | 
2 | O=c1ccc2ccc(OCCCN3CCN(c4cccc5sccc45)CC3)cc2[nH]1 [Example 7, 7-[3-(4-benzo[b]thiophen-4-yl-piperazin-1-yl)propoxy]-1H-quinolin-2-one] | 91% | 9.30 | 8.40 | 
3 | CC1CC(=O)Nc2cc(OCCCCN3CCN(c4cccc5sccc45)CC3)ccc21 (stereo not shown) [Example 16, 7-[4-(4-benzo[b]thiophen-4-yl-piperazin-1-yl)butoxy]-4-methyl-3,4-dihydro-1H-quinolin-2-one] | 86.7% | 9.15 | 8.15 | 
4 | O=C1CCc2cc(OCCCCN3CCN(c4cccc5sccc45)CC3)ccc2N1 [Example 20, 6-[4-(4-benzo[b]thiophen-4-yl-piperazin-1-yl)butoxy]-3,4-dihydro-1H-quinolin-2-one] | 92.8% | 8.82 | 8.48 | 
5 | O=C1c2ccccc2CCN1CCCCCN1CCN(c2cccc3sccc23)CC1 [Example 24, 2-[5-(4-benzo[b]thiophen-4-yl-piperazin-1-yl)pentyl]-3,4-dihydro-2H-isoquinolin-1-one] | 97.5% | 8.30 | 8.64 | 
6 | O=c1c2ccccc2ccn1CCCCN1CCN(c2cccc3sccc23)CC1 [Example 34, 2-[4-(4-benzo[b]thiophen-4-yl-piperazin-1-yl)butyl]-2H-isoquinolin-1-one] | 94.2% | 8.92 | 8.82 | 

Second part, the compound after the results:

Row | inhibition at 0.3 µM [1] | pKi [2] | pKi [3] | quantity of cyclic AMP as the maximum activity (well without test compound = 100%) [4] | SMILES
7 | 92.6% | 9.40 | 8.52 |  | O=C1CCc2ccc(OCCCN3CCN(c4cccc5sccc45)CC3)cc2N1 [Example 10, 7-[3-(4-benzo[b]thiophen-4-yl-piperazin-1-yl)propoxy]-3,4-dihydro-1H-quinolin-2-one]
8 | 87.2% | 9.70 | 8.48 |  | O=C1CCc2ccc(OC/C=C/CN3CCN(c4cccc5sccc45)CC3)cc2N1 [Example 15, 7-[4-(4-benzo[b]thiophen-4-yl-piperazin-1-yl)-(E)-2-butenyloxy]-3,4-dihydro-1H-quinolin-2-one]
9 | 92% | 8.46 | 8.36 |  | CN1CCc2cc(OCCCN3CCN(c4cccc5sccc45)CC3)ccc2C1=O [Example 26, 6-[3-(4-benzo[b]thiophen-4-yl-piperazin-1-yl)propoxy]-2-methyl-3,4-dihydro-2H-isoquinolin-1-one]
10 | 94% | 8.31 | 8.39 |  | CCN1CCc2cc(OCCCN3CCN(c4cccc5sccc45)CC3)ccc2C1=O [Example 27, 6-[3-(4-benzo[b]thiophen-4-yl-piperazin-1-yl)propoxy]-2-ethyl-3,4-dihydro-2H-isoquinolin-1-one]
11 | 91.6% | 8.32 | 8.29 |  | O=c1[nH]ccc2cc(OCCCN3CCN(c4cccc5sccc45)CC3)ccc12 [Example 40, 6-[3-(4-benzo[b]thiophen-4-yl-piperazin-1-yl)propoxy]-2H-isoquinolin-1-one]
12 |  |  |  | about 10% | NCCc1ccc(O)c(O)c1 [dopamine]
